In US4703110A, “Benzoic acid derivatives having a para substituent which is a substituted phenyl group connected by a linking radical; useful in neoplastic cell differentiation and diagnosis” (Shudo; Koichi, priority 1984, dated 1987):

How the values were obtained:
[1] = system: human acute promyelocytic leukemia cells (HL-60); experiment: Differentiation of HL-60 cells, morphological changes of nuclei (Wright-Giemsa); format: cell-based; conditions: HL-60, 4 days; test concentration not stated
Experimental: The HL-60 cells are cultured in plastic flasks in RPMI-1640 medium supplemented with 5% heat inactivated fetal calf serum and antibiotics (penicillin G and streptomycin). The cells (3×10^4 /ml) were cultured with a compound of the present invention for 4 days. Growth inhibition of the cells by the test compounds was determined by counting the number of cells by microscope and relative ratio was examined by taking the number of cells by control (without test compound) as 100%. The cells are fixed and stained with Wright-Giemsa to examine the morphological changes of the nuclei.

[2] = system: human acute promyelocytic leukemia cells (HL-60); experiment: Reduction of nitro-blue tetrazolium (NBT) by treated HL-60 cells; format: cell-based; conditions: HL-60, 5 days incubation, TPA 200 ng/ml, 0.1% NBT, 20 minutes at 37° C.
Experimental: The biochemical activity of cells treated with the compound was measured as follows:
The cells after 5 days incubation are centrifuged and diluted with RPMI-1640 medium supplemented with 5% fetal calf serum, to provide a definite number of the cells. To the diluted cell suspension are then added 200 ng/ml of […] (TPA) and the resulting culture medium is then incubated for 20 minutes at 37° C. in the presence of 0.1% of NBT. Thus, the mature differentiated cells containing blue-black formazan is counted by microscopy, so that the ratio of the cells having the ability to reduce NBT, to total cells, can be calculated.

[3] = system: HL-60 transplanted to nude mice; experiment: Treatment of nude mice transplanted with HL-60; format: in vivo, nude mouse (BALB/c, nu/nu); conditions: per os, 200 mg/kg/day, days 9, 14 and 17 after transplantation; measured 4, 6, 8 and 11 days after first administration
Experimental: A test of treatment of nude mice, to which HL-60 have been transplanted, with a compound of the present invention is performed as follows:
A test compound (e.g., p-(5,6,7,8-tetrahydro-5,5,8,8-tetramethyl-2-naphthylcarbamoyl)benzoic acid) is suspended in 10% (v/v) Tween 80 in a concentration of 10 mg/ml. Cells (5×10^7) of HL-60 were transplanted subcutaneously to a nude mouse (BALB/c, nu/nu female Nihon Clea).
At the end of days 9, 14 and 17 after the transplantation, 0.1 ml of the suspension per 10 g of body weight of mouse were administrated per os two times at intervals of 7 hours (200 mg/kg/day).

| SMILES | Banded and Segmented Neutrophils [1] [%] | Myelocytes and Metamyelocytes [1] [%] | Promyelocytes [1] [%] | Reductivity of NBT [2] [%] | Tumor growth [3] |
| --- | --- | --- | --- | --- | --- |
| CC(C)c1ccc(NC(=O)c2ccc(C(=O)O)cc2)cc1C(C)C [No. 30] | 11 | 82 | 7 | 90 |  |
| COC(=O)c1ccc(C2OC2c2ccc3c(c2)C(C)(C)CCC3(C)C)cc1 (stereo not shown) [H drawing 10 H H OCH3 drawing 9] | 18 | 63 | 19 | 78 |  |
| CC(C)(C)c1ccc(C(=O)C=Cc2ccc(C(=O)O)cc2)cc1 [No. 9] | 6 | 48 | 46 | 68 |  |
| CC(C)(C)c1cc(C(=O)C=Cc2ccc(C(=O)O)cc2)cc(C(C)(C)C)c1 [No. 8] | 16 | 82 | 2 | 95 |  |
| CC(C)c1ccc(N=Nc2ccc(C(=O)O)cc2)cc1C(C)C [No. 50] | 11 | 50 | 39 | 55 |  |
| COC(=O)c1ccc(N=Nc2ccc3c(c2)C(C)(C)CCC3(C)C)cc1 [No. 57] | 10 | 49 | 41 | 60 |  |
| CC1(C)CCC(C)(C)c2cc(C(=O)C=Cc3ccc(C(=O)O)cc3)ccc21 [No. 11] | 12 | 86 | 2 | 95 |  |
| CCc1ccc(C(=O)C=Cc2ccc(C(=O)OC)cc2)cc1CC [H Et Et H H OCH3 drawing 7] | 8 | 54 | 38 | 72 |  |
| CC1(C)CCC(C)(C)c2cc(NC(=O)c3ccc(C(=O)O)cc3)ccc21 [No. 35, p-(5,6,7,8-tetrahydro-5,5,8,8-tetramethyl-2-naphthylcarbamoyl)benzoic acid] | 19 | 78 | 3 | 98 | tumor growth was clearly suppressed |
| COC(=O)c1ccc(C(=O)Nc2ccc3c(c2)C(C)(C)CCC3(C)C)cc1 [No. 34] | 12 | 85 | 3 | 97 |  |
| COC(=O)c1ccc(C2OC2(C)c2ccc3c(c2)C(C)(C)CCC3(C)C)cc1 (stereo not shown) [H drawing 10 H H OCH3 drawing 11] | 9 | 79 | 12 | 81 |  |
| CC1(C)CCC(C)(C)c2cc([N+]([O-])=Nc3ccc(C(=O)O)cc3)ccc21 [H drawing 12 H H OH drawing 13] | 7 | 53 | 40 | 70 |  |
| CC1=C(/C=C/C(C)=C/C=C/C(C)=C/C(=O)O)C(C)(C)CCC1 [Retinoic acid, reference compound] | 4 | 71 | 25 | 75 |  |
| COC(=O)c1ccc(C=CC(=O)c2ccc3c(c2)C(C)(C)CCC3(C)C)cc1 [No. 13] | 4 | 91 | 5 | 97 |  |
| COC(=O)c1ccc(C2OC2c2cccc(C(C)(C)C)c2)cc1 (stereo not shown) [H tBu H H H OCH3 drawing 9] | 9 | 69 | 20 | 70 |  |
